Measured values as given in ChEMBL document CHEMBL3856247, “Wnt/β-catenin signaling plays an important role in the protective effects of FDP-Sr against oxidative stress induced apoptosis in MC3T3-E1 cell” (Bioorg Med Chem Lett, 2016).
Calls of active or inactive are those of the source. The calls are words filed in the database; no cut-off is given here.

How the values were obtained:
Rattus norvegicus [1] = species: Rattus norvegicus; assay: Cytotoxicity against […] cells assessed as effect on cell number at 1 mM after 48 hrs by MTT assay; type: toxicity, cell-based; conditions: mc3t3-e1, 48 h, 1000 µM
[2] = Induction of Wnt/beta-catenin signaling pathway in […] cells assessed as protection against H2O2-induced oxidative stress by measuring increase in mineralization at 0.5 to 2 mM pretreated with compound for 48 hrs followed by H2O2 treatment for 24 hrs; type: cell-based
MC3T3-E1 [3] = assay: Protection against H2O2-induced apoptosis in […] cells assessed as decrease in nuclear condensation pretreated with compound for 48 hrs followed by H2O2 treatment for 24 hrs by DAPI staining based confocal laser scanning microscopy; type: functional, cell-based
[4] = (§1) Induction of Wnt/beta-catenin signaling pathway in […] cells assessed as protection against H2O2-induced oxidative stress by measuring decrease in phosphorylated beta-catenin expression at 1.5 mM pretreated with compound for 48 hrs followed by H2O2 treatment for 24 hrs by Western blot analysis; type: cell-based
[5] = Induction of Wnt/beta-catenin signaling pathway in […] cells assessed as protection against H2O2-induced cell death at 2 mM pretreated with compound for 48 hrs followed by H2O2 treatment for 24 hrs by MTT assay; type: cell-based
Rattus norvegicus [6] = assay: Protection against OVX-induced oxidative stress in osteoporosis rat model assessed as decrease in H2O2 level in serum at 220 mg/kg/day after 3 months by colorimetric assay; type: functional, organism-based
[7] = Induction of Wnt/beta-catenin signaling pathway in […] cells assessed as protection against H2O2-induced oxidative stress by measuring increase in ALP activity at 2 mM pretreated with compound for 48 hrs followed by H2O2 treatment for 24 hrs; type: cell-based
Rattus norvegicus [8] = assay: Protection against OVX-induced osteoporosis in osteoporosis rat model assessed as increase in bone mineral density of femur at 220 mg/kg/day after 3 months by dual X-ray absorptiometry; type: functional, organism-based
MC3T3-E1 [9] = assay: Protection against H2O2-induced apoptosis in rat MC3T3-E1 cells assessed as decrease in nuclear fragmentation pretreated with compound for 48 hrs followed by H2O2 treatment for 24 hrs by DAPI staining based confocal laser scanning microscopy; type: functional, cell-based
[10] = (§2) Induction of Wnt/beta-catenin signaling pathway in […] cells assessed as protection against H2O2-induced oxidative stress by measuring increase in onc mRNA expression at 2 mM pretreated with compound for 48 hrs followed by H2O2 treatment for 24 hrs by immunofluorescence staining method; type: cell-based
[11] = Induction of Wnt/beta-catenin signaling pathway in […] cells assessed as protection against H2O2-induced cell death at 0.5 to 2 mM pretreated with compound for 48 hrs followed by H2O2 treatment for 24 hrs by MTT assay; type: cell-based
Rattus norvegicus [12] = species: Rattus norvegicus; assay: Cytotoxicity against […] cells assessed as effect on cell number at 2 mM after 48 hrs by MTT assay; type: toxicity, cell-based; conditions: mc3t3-e1, 48 h, 2000 µM
[13] = as §1, with “0.5 to 2” for “1.5”; type: cell-based
MC3T3-E1 [14] = assay: Protection against H2O2-induced apoptosis in rat MC3T3-E1 cells assessed as inhibition of caspase 3 activation using Ac-DEVD-pNA as substrate pretreated with compound for 48 hrs followed by H2O2 treatment for 24 hrs; type: functional, cell-based
[15] = Induction of Wnt/beta-catenin signaling pathway in […] cells assessed as protection against H2O2-induced oxidative stress by measuring ALP activation at 0.5 to 2 mM pretreated with compound for 48 hrs followed by H2O2 treatment for 24 hrs by Western blot analysis; type: cell-based
MC3T3-E1 [16] = assay: Protection against H2O2-induced apoptosis in rat MC3T3-E1 cells assessed as inhibition of caspase 3 mRNA level pretreated with compound for 48 hrs followed by H2O2 treatment for 24 hrs by quantitative real-time PCR method; type: functional, cell-based
Rattus norvegicus [17] = assay: Protection against OVX-induced oxidative stress in osteoporosis rat model assessed as […] level in serum at 220 mg/kg/day after 3 months by colorimetric assay; type: functional, organism-based
MC3T3-E1 [18] = assay: Increase in cell viability of […] cells at 1 mM after 48 hrs by MTT assay; type: functional, cell-based
[19] = Induction of Wnt/beta-catenin signaling pathway in […] cells assessed as protection against H2O2-induced oxidative stress by measuring increase in ALP activity at 0.5 to 2 mM pretreated with compound for 48 hrs followed by H2O2 treatment for 24 hrs; type: cell-based
[20] = as §2, with “expression at 0.5 to 2 mM” for “expression at 2 mM”; type: cell-based
[21] = Induction of Wnt/beta-catenin signaling pathway in […] cells assessed as protection against H2O2-induced oxidative stress by measuring Runx2 activation at 0.5 to 2 mM pretreated with compound for 48 hrs followed by H2O2 treatment for 24 hrs by Western blot analysis; type: cell-based
[22] = Induction of Wnt/beta-catenin signaling pathway in […] cells assessed as protection against H2O2-induced oxidative stress by measuring OPG activation at 0.5 to 2 mM pretreated with compound for 48 hrs followed by H2O2 treatment for 24 hrs by Western blot analysis; type: cell-based
[23] = Induction of Wnt/beta-catenin signaling pathway in […] cells assessed as protection against H2O2-induced oxidative stress by measuring increase in mineralization at 2 mM pretreated with compound for 48 hrs followed by H2O2 treatment for 24 hrs; type: cell-based
[24] = Induction of Wnt/beta-catenin signaling pathway in […] cells assessed as protection against H2O2-induced oxidative stress in presence of Wnt/beta-catenin signaling pathway inhibitor XAV-939; type: cell-based

For `CC(=O)N[C@@H](CS)C(=O)O` [ACETYLCYSTEINE], the Activity (Rattus norvegicus [1]) was “Non-Toxic”.
For `O.O.O.O.O.O.O.O.O=P([O-])([O-])OCC1(O)O[C@H](COP(=O)([O-])O)[C@@H](O)[C@@H]1O.[Na+].[Na+].[Na+]` (some centres undefined) [FOSFRUCTOSE TRISODIUM], the Activity [2] was “Active”, the Activity (MC3T3-E1 [3]) was “Active” and the Activity [4] was “Active”. The Activity [5] was “Active”, the Activity (Rattus norvegicus [6]) was “Active” and the Activity [7] was “Active”. The Activity (Rattus norvegicus [8]) was “Active”, the Activity (MC3T3-E1 [9]) was “Active” and the Activity [10] was “Active”. For the same compound, the Activity [11] was “Active”, the Activity (Rattus norvegicus [12]) was “Non-Toxic” and the Activity [13] was “Active”. For the same compound, the Activity (MC3T3-E1 [14]) was “Active”, the Activity [15] was “Active” and the Activity (MC3T3-E1 [16]) was “Active”. The Activity (Rattus norvegicus [17]) was “Active”, the Activity (MC3T3-E1 [18]) was “Active” and the Activity [19] was “Active”. The Activity [20] was “Active”, the Activity [21] was “Active” and the Activity [22] was “Active”. For the same compound, the Activity [23] was “Active” and the Activity [24] was “Active”.
